Laboratory results: US9265771B2, “Method for treating Lyme disease” (Zoetis Services LLC, priority 2012, dated 2016)
Several values for one entry are separate records, joined by “and”; a condition that tells them apart may be missing. Identical values can stand only once.

Assays:
[1] = tested on: B. burgdorferi outer surface protein OspF; assay: Study B: fluorescent-bead-based multiplex assay, antibodies against OspF; format: in vivo, beagle dogs; conditions: for Multiplex Assay OspF: No. Dogs > Positive Threshold (# dogs > 1500): 8 dogs/group
Description: (§1) Thirty-two (18 male and 14 female) beagle dogs were sero-negative for Borrelia burgdorferi, not vaccinated with any Borrelia spp vaccines, and acclimated at the study facility for seven days. The study was conducted under National Research Council guidelines (1996). […] Field-caught Ixodes from the northeast USA were placed on the dogs without containment chambers for 10 days; after ticks fed to repletion, dogs were treated with two applications of an approved topical acaricide with a 30-day interval between applications.
Forty days post-challenge, and prior to antibiotic treatments, blood was collected from each dog as were two skin biopsy punch samples near tick attachment sites. Blood was collected approximately monthly post-treatment. Skin biopsies were taken near the tick attachment site on Days 48/49, 118, 146, 180, and 315. Serum antibodies to Borrelia were assayed using the IDEXX SNAP-4Dx and QC6 ELISA. In cooperation with Cornell University, serum samples were analyzed using fluorescent-bead-based multiplex assays detecting antibodies against B. burgdorferi outer surface proteins OspA, OspC, and OspF. […] The skin biopsies were collected for a polymerase chain reaction (PCR; FlaB) assay and cultured for spirochete detection. At the end of the study, blood and skin biopsies were collected and synovial tissue from the joints were harvested at necropsy.
(§2) On Day 75 and Day 89 Convenia was administered to the eight dogs in T04 (8 mg/kg bodyweight; subcutaneous injection). The other treated groups received their respective regimens daily and orally for 30 days from Days 75 to 104. […] Dogs in T01 served as infected, untreated, controls.

[2] = tested on: B. burgdorferi; assay: Study B: microscopic examination of joints and skin at necropsy; format: in vivo, beagle dogs; conditions: for Number of Joints with Changes as Described for Lyme disease: N = 8
Description: as §1
(§3) Forty days post-challenge, and prior to antibiotic treatments, blood was collected from each dog as were two skin biopsy punch samples near tick attachment sites. Blood was collected approximately monthly post-treatment. Skin biopsies were taken near the tick attachment site on Days 48/49, 118, 146, 180, and 315. Serum antibodies to Borrelia were assayed using the IDEXX SNAP-4Dx and QC6 ELISA. In cooperation with Cornell University, serum samples were analyzed using fluorescent-bead-based multiplex assays detecting antibodies against B. burgdorferi outer surface proteins OspA, OspC, and OspF. Data were expressed as median fluorescent intensities (MFI), and shown to be specific and sensitive to provide interpretative guidelines regarding infection. The skin biopsies were collected for a polymerase chain reaction (PCR; FlaB) assay and cultured for spirochete detection. At the end of the study, blood and skin biopsies were collected and synovial tissue from the joints were harvested at necropsy.
as §2, with “controls. Inter-treatment comparisons to evaluate antibiotic efficacy included clinical signs, serology, culture results and pathology.” for “controls.”
At necropsy ten joints were harvested per each dog, formalin-fixed, stained and examined microscopically. Joints included the carpus, elbow, shoulder, stifle and tarsus on both the right and left limbs. Further, a section of skin near tick attachment sites was evaluated from each dog. There were two dogs in the Convenia group (25%) with tissues showing changes as described for Lyme disease, compared to seven controls (87.5%) and three (37.5%) to four (50.0%) dogs in the other antibiotic-treated groups (Table 7). […] The Convenia group had the lowest incidence of joint changes with six affected of 80.

[3] = tested on: B. burgdorferi sensu stricto (B31 strain); assay: In-vitro assessment of cefovecin efficacy (live spirochetes in culture by light microscopy); format: cell-based, Borrelia burgdorferi; conditions: for Number of B. burgdorferi spirochetes per field-of-view (geometric mean per ten field of views): cultures A, C
Description: B. burgdorferi sensu stricto (B31 strain) was cultured. The experimental (triplicate) groups included a control, 0.02 μg/mL cefovecin, and 2 μg/mL cefovecin. Cultures were viewed by light microscopy at 0, 6, 24, 30, 48, and 54 hours post inoculation to assess number of live spirochetes (Table 1).

[4] = canine; cited from earlier work
[5] = dog, in vivo, sc, 8 mg/kg
Description: On Days 83 and 97, Convenia was administered (8 mg/kg bodyweight; subcutaneous injection). Treated dogs, 8 B. burgdorferi-positive and 4 controls, were compared to untreated cohorts (8 B. burgdorferi-positive, and 3 controls).

[6] = tested on: B. burgdorferi; assay: Study A: bacterial culture of skin biopsy samples for spirochetes; format: in vivo, beagle dogs
Description: Twenty-three adult female beagle dogs were used in this study; all were sero-negative for Borrelia, not vaccinated with any Borrelia spp vaccines, and acclimated at the study facility for seven days prior to any study activities. The study was conducted under National Research Council guidelines (1996. Dogs were randomized to a non-infected control (n=7 dogs) group, or infected groups (n=8 dogs/region) using ticks from two regions of the USA, Region A (New England (NE), i.e., Rhode Island) and Region B (Midwest (MW), i.e., Wisconsin). Dogs were infected on Day 0 with up to 30 Ixodes scapularis ticks per dog. Tick attachment was monitored daily and after nine days, remaining ticks were harvested and all dogs were treated with two topical applications of an approved acaricide observing a 30-day interval between applications. Dogs were monitored 21-days post-challenge for pyrexia, and the entire post-challenge period for clinical signs of Lyme disease (lameness, ataxia, anorexia, lymphadenopathy and depression).
Blood was collected from each dog weekly to Day 28, then every two-weeks for the remainder of the study (166 days). […] Two skin punch biopsies were collected near tick attachment sites from each dog every 28 days post-challenge for bacterial culture.
On Days 83 and 97, Convenia was administered (8 mg/kg bodyweight; subcutaneous injection). Treated dogs, 8 B. burgdorferi-positive and 4 controls, were compared to untreated cohorts (8 B. burgdorferi-positive, and 3 controls). Comparisons included serology, skin culture results and joint pathology.

[7] = tested on: B. burgdorferi outer surface protein OspC; assay: Study B: fluorescent-bead-based multiplex assay, antibodies against OspC; format: in vivo, beagle dogs; conditions: Day 111
Description: as §1
as §3, with “At the end of the study, blood and skin biopsies were collected and synovial tissue from the joints were harvested at necropsy.” left out

[8] = joints, skin, 8 dogs/group, necropsy
[9] = prior to treatment, of eight dogs

## CO/N=C(\C(=O)N[C@@H]1C(=O)N2C(C(=O)[O-])=C([C@@H]3CCCO3)CS[C@H]12)c1csc(N)n1.[Na+] [Convenia, (6R,7R)-7-[[(2Z)-(2-amino-4-thiazolyl)(methoxyimino)acetyl]-amino]-8-oxo-3-[(2S)-tetrahydro-2-furanyl]-5-thia-1-azabicyclo[4.2.0]oct-2-ene-2-carboxylic acid, monosodium salt]
[1]; Day 48 (pre-treatment)
  Multiplex Assay OspF: MFI Mean: 922.75 MFI
  Multiplex Assay OspF: No. Dogs > Positive Threshold (# dogs > 1500): 2
[1]; Day 48 (pre-treatment), monosodium salt
  Multiplex Assay OspF: No. Dogs > Positive Threshold (# dogs > 1500): two
[1]; Day 111
  Multiplex Assay OspF: MFI Mean: 704.13 MFI
  Multiplex Assay OspF: No. Dogs > Positive Threshold (# dogs > 1500): 0
[1]; Day 145
  Multiplex Assay OspF: MFI Mean: 306.75 MFI
  Multiplex Assay OspF: No. Dogs > Positive Threshold (# dogs > 1500): 0
[1]; Day 179
  Multiplex Assay OspF: MFI Mean: 270.00 MFI
  Multiplex Assay OspF: No. Dogs > Positive Threshold (# dogs > 1500): 0
[1]; Day 221
  Multiplex Assay OspF: MFI Mean: 227.13 MFI
  Multiplex Assay OspF: No. Dogs > Positive Threshold (# dogs > 1500): 0
[1]; Day 251
  Multiplex Assay OspF: MFI Mean: 221.88 MFI
  Multiplex Assay OspF: No. Dogs > Positive Threshold (# dogs > 1500): 0
[1]; Day 281
  Multiplex Assay OspF: MFI Mean: 225.63 MFI
  Multiplex Assay OspF: No. Dogs > Positive Threshold (# dogs > 1500): 0
[1]; Day 314
  Multiplex Assay OspF: MFI Mean: 239.88 MFI
  Multiplex Assay OspF: No. Dogs > Positive Threshold (# dogs > 1500): 0
[1]; Day −15 (pre-infection)
  Multiplex Assay OspF: MFI Mean: 101.50 MFI
  Multiplex Assay OspF: No. Dogs > Positive Threshold (# dogs > 1500): 0
[1]; after Day 48
  Antibody-OspF status of dogs: all dogs negative thereafter
[2]; 80 total/group
  Number of Joints with Changes as Described for Lyme disease, Cumulative: 6
[2]; Carpus L
  Number of Joints with Changes as Described for Lyme disease: 1
[2]; Carpus R
  Number of Joints with Changes as Described for Lyme disease: 1
[2]; Elbow L
  Number of Joints with Changes as Described for Lyme disease: 0
[2]; Elbow R
  Number of Joints with Changes as Described for Lyme disease: 1
[2]; Shoulder L
  Number of Joints with Changes as Described for Lyme disease: 0
[2]; Shoulder R
  Number of Joints with Changes as Described for Lyme disease: 0
[2]; Stifle L
  Number of Joints with Changes as Described for Lyme disease: 1
[2]; Stifle R
  Number of Joints with Changes as Described for Lyme disease: 2
[2]; Tarsus L
  Number of Joints with Changes as Described for Lyme disease: 0
[2]; Tarsus R
  Number of Joints with Changes as Described for Lyme disease: 0
[2]; [8]
  No Tissue Changes, # Dogs: 6
  No Tissue Changes, %: 75%
  Tissue Changes Described for Lyme Disease, # Dogs: two
  Tissue Changes Described for Lyme Disease, %: 25%
[2]; joints, skin, 8 dogs/group, necropsy, listed as T04, monosodium salt
  Tissue Changes Described for Lyme Disease, # Dogs: 2
[2]; microscopic evaluation of articular joints
  Incidence of joint lesions, lower than in dogs administered doxycycline or amoxicillin orally for 30 days: 2 fold
[3]; 0.02 μg/mL, 0 hours
  Number of B. burgdorferi spirochetes per field-of-view (geometric mean per ten field of views): 0
[3]; 0.02 μg/mL, 24 hours, listed as cefovecin, monosodium salt
  Number of B. burgdorferi spirochetes per field-of-view (geometric mean per ten field of views): 1.7 and 2.1 and 2.0
[3]; 0.02 μg/mL, 48 hours, listed as cefovecin, monosodium salt
  Number of B. burgdorferi spirochetes per field-of-view (geometric mean per ten field of views): 7.2 and 4.1 and 5.9
[3]; 0.02 μg/mL, 54 hours, listed as cefovecin, monosodium salt
  Number of B. burgdorferi spirochetes per field-of-view (geometric mean per ten field of views): 8.1 and 10.2 and 9.0
[3]; 0.02 μg/mL, in 54 hours
  Retardation of growth of B. burgdorferi: at least 30%
[3]; 2 μg/mL
  Time after which B. burgdorferi is eliminated in culture: about 24 hours
[3]; 2 μg/mL, 0 hours
  Number of B. burgdorferi spirochetes per field-of-view (geometric mean per ten field of views): 0
[3]; 2 μg/mL, 30 hours
  Number of B. burgdorferi spirochetes per field-of-view (geometric mean per ten field of views): 0
[3]; 2 μg/mL, 48 hours
  Number of B. burgdorferi spirochetes per field-of-view (geometric mean per ten field of views): 0
[3]; 2 μg/mL, 54 hours
  Number of B. burgdorferi spirochetes per field-of-view (geometric mean per ten field of views): 0
[4]
  Elimination half-life: about 133 hours
[5]
  Adverse or unexpected events: No adverse or unexpected events
[6]; post-treatment (Days 111 to 166), 8 mg/kg sc Days 83 and 97
  Bacterial culture of skin for spirochetes: all were negative on bacterial culture
[6]; [9]
  Dogs culture-positive for spirochetes from skin: 88%
  Number of dogs culture-positive for spirochetes from skin: Seven
[7]
  Number of dogs above infected threshold (antibody-OspC): one
